Patent US4351948A, “Imidazole hydrazone derivatives” (priority 1980, dated 1982)
pIC50: −log10 of the molar value. Where a name gives a salt, the structure may show the parent alone. Read-outs that look alike come from different tables or passages of the source.

Assays:
[1] = tested on: Escherichia coli; test: Anti-bacterial activity, zone diameter; type: cell-based; conditions: for zone of inhibition at 50 µg/disc: read-out: Zone diameter given by 50 μg of drug
Excerpt: (§1) The anti-bacterial activity of the compound HC274 according to the present invention was also compared with the activity of known anti-bacterial agents with the following results: […]

[2] = tested on: Klebsiella pneumoniac; test: Anti-bacterial activity, zone diameter; type: cell-based; conditions: for zone of inhibition at 50 µg/disc: read-out: Zone diameter given by 50 μg of drug
Excerpt: as §1

[3] = tested on: Nocardia asteroides; test: Anti-bacterial activity, zone diameter; type: cell-based; conditions: for zone of inhibition at 50 µg/disc: read-out: Zone diameter given by 50 μg of drug
Excerpt: as §1

[4] = tested on: Nocardia brasiliensis; test: Anti-bacterial activity, zone diameter; type: cell-based; conditions: for zone of inhibition at 50 µg/disc: read-out: Zone diameter given by 50 μg of drug
Excerpt: as §1

[5] = tested on: Proteus vulgaris; test: Anti-bacterial activity, zone diameter; type: cell-based; conditions: for zone of inhibition at 50 µg/disc: read-out: Zone diameter given by 50 μg of drug
Excerpt: as §1

[6] = tested on: Staphylococcus aureus; test: Anti-bacterial activity, zone diameter; type: cell-based; conditions: for zone of inhibition at 50 µg/disc: read-out: Zone diameter given by 50 μg of drug
Excerpt: as §1

[7] = tested on: Streptococcus pyrogenes; test: Anti-bacterial activity, zone diameter; type: cell-based; conditions: for zone of inhibition at 50 µg/disc: read-out: Zone diameter given by 50 μg of drug
Excerpt: as §1

[8] = tested on: pseudomonas aeruginosa; test: Anti-bacterial activity, zone diameter; type: cell-based; conditions: for zone of inhibition at 50 µg/disc: read-out: Zone diameter given by 50 μg of drug
Excerpt: as §1

[9] = tested on: platelet aggregation; test: Platelet aggregation after oral administration in the retired male breeder rat model; type: in vivo; conditions: read-out: ED50 (3 hr. post oral administration)
Excerpt: HC 501 has also been evaluated for platelet aggregation 3 hrs. after oral administration in the retired male breeder rat model (R. N. Saunders et al, Lab. Anim. Sci., 1977, 27, 757).

[10] = tested on: C. albicans; test: Vaginal candida infection in rats, oral or topical treatment; type: in vivo
Excerpt: Effect of oral or topical administration of HC274 and ketoconazole on vaginal candida infection in rats. Clearance of C. albicans from rat vagina following oral or topical treatment (as percentage of control).
Topical treatment: 1% solution in polyethylene glycol administrated twice daily for 3 days.
Oral treatment: Once daily for 3 days.

[11] = tested on: Trichophyton mentagrophytes; test: Experimental Trichophyton mentagrophytes infection in guinea pigs; type: in vivo
Excerpt: Effect of oral or topical administration of HC274, HC344, Clotrimazole, and Ketoconazole on experimental Trichophyton mentagrophytes infection in guinea pigs.
*Based on degree of hair loss, erythema, desquamation, Max. = 100
Treatments administered in Carbopol® gel, once daily days 5-10.

[12] = in vivo
[13] = tested on: candida albicans; test: Oral treatment: recovery of viable candida albicans from the kidneys of infected mice; type: in vivo
Excerpt: Effect of oral treatment with HC274, HC316, HC390, HC415 and Ketoconazole on the recovery of viable candida albicans from the kidneys of infected mice.

[14] = tested on: platelet thromboxane generation; test: Inhibition of platelet thromboxane generation (TxB2, collagen-stimulated human platelet rich plasma); type: cell-based; conditions: 10 min, collagen 8 μg/ml, human PRP, 10 min. incubation, 37° C., read-out: Activity IC50 (50% inhibition of TxB2 generation)
Description: The compounds used according to the invention as anti-thrombotics were tested by the following method for their ability to inhibit platelet thromboxane generation.
Human venous blood was collected from healthy male donors, who had denied any medication in the previous 14 days. Nine volumes of blood were mixed with one volume of 3.24% trisodium citrate. The citrated blood was centrifuged at 160 g for 10 mins. at 22° C. to obtain platelet rich plasma (PRP). The platelets were then counted on a Coulter counter, and the platelet count was adjusted to 200,000 per μl with plasma.
The PRP was then dispensed as aliquots into micro-Eppendorf tubes, maintained at 37° C. in a dry bath. The compounds dissolved either in saline, ethanol, or DMSO were added in duplicate to the PRP aliquots to produce final concentrations of 0.3, 3 and 30 μg/ml. When ethanol and DMSO were used as the vehicle, triplicate controls containing the same percentage of vehicle as the test compounds were made. The final concentration or organic solvent was never more than 0.1%, which in previous experiments had no effect on TxB2 generation.
Following a 10 min. incubation with test compounds or vehicle, collagen was added to produce a final concentration of 8 μg/ml. The tubes were then whirly-mixed for 15 seconds and replaced in the dry bath for a further 10 minutes, controls received saline instead of collagen. The reaction was then stopped by rapid centrifugation, 15,000 g for 3 mins. The plasma was removed and frozen at -29° C. until assayed.
Briefly, 100 μl aliquots, in tricine buffered saline+0.8% gelatin (pH 8.0) of the following were incubated together for 1 hour at 37° C.: thromboxane Tx B2 (plasma extract, spiked plasma extract or standards 20 to 20,000 pg/ml), ^3 H--TxB2 (approximately 15,000 dpm) and anti-TxB2 antiserum (0.5 μg/100 μl). The free and protein bound ^3 H--TxB2 were separated by ammonium sulphate precipitation followed by centrifugation. 300 μl of the supernatant was added to an aqueous scintillation fluid, and the radioactivity present was counted in a liquid scintillation counter. The binding of ^3 H--TxB2 in the absence of added TxB2 was approximately 55%. The least amount of TxB2 to be detected accurately in the plasma was 0.08 ng/ml. Cross reactivity with other prostaglandins is less than 0.005% except PGD2 which is 1%.
Thus plasma samples were assayed to give a rough approximation of TxB2 content. The plasma was then appropriately diluted and assayed in duplicate to give accurate values.
The amount of TxB2 generated by the collagen was calculated by subtracting mean values obtained for the saline stimulated platelets from the mean values obtained from the collagen stimulated platelets. Then the amount of TxB2 generated in the presence of each concentration of compound was expressed as a % control and dose response curves were then constructed to determine the concentration of compound which produced a 50% inhibition.

[15] = tested on: C. albicans; test: Recovery of viable candida cells from the kidneys of infected mice (p.o. and i.v. treatment); type: in vivo; conditions: 25 mg/kg 1 h and 24 h after infection
Description: Mice receive 25×10^4 cells of C. albicans i.v. Treatments (25 mg/kg) administered in PEG/Dextrose 1 h and 24 h after infection. Animals sacrified 48 h after infection and kidneys excised, weighed, homogenized and decimal dilutions spread on glucose-peptone agar.

[16] = tested on: candida; test: Intravenous administration: recovery of viable candida cells from the kidneys of infected mice; type: in vivo; conditions: 25 mg/ml
[17] = topical, 1% solution in polyethylene glycol twice daily for 3 days
[18] = topical, 1% w/w in Carbopol gel once daily days 5-10, day 10 after infection
[19] = topical, 1% w/w in Carbopol gel, day 5 after infection
[20] = oral, 3 hr, retired male breeder rat

## CC1(C)S[C@@H]2[C@H](NC(=O)[C@H](N)c3ccccc3)C(=O)N2[C@H]1C(=O)O [AMP, Ampicillin]
[1]; 50 μg
  zone of inhibition at 50 µg/disc: 17 mm
[2]; 50 μg, Klebsiella pneumoniac
  zone of inhibition at 50 µg/disc: 11 mm
[3]; 50 μg
  zone of inhibition at 50 µg/disc: 38 mm
[4]; 50 μg
  zone of inhibition at 50 µg/disc: 38 mm
[5]; 50 μg
  zone of inhibition at 50 µg/disc: 28 mm
[6]; 50 μg
  zone of inhibition at 50 µg/disc: 21 mm
[7]; 50 μg, Streptococcus pyrogenes
  zone of inhibition at 50 µg/disc: 25 mm
[8]; 50 μg, pseudomonas aeruginosa
  zone of inhibition at 50 µg/disc: 0 mm

## CC(=O)Oc1ccccc1C(=O)O [Aspirin, 2(Acetyloxy)benzoic acid]
[9]; Rattus norvegicus, po, 3 h
  ED50: 7.7 mg/kg

## Clc1ccccc1C(c1ccccc1)(c1ccccc1)n1ccnc1 [Clotrimazole, 1-(2-Chlorophenyl)diphenylmethyl-1H-imidazole, reference compound]
[10]; [17]
  Clearance of C. albicans from rat vagina (as percentage of control): 100 percentage of control
[11]; [18]
  Disease rating (degree of hair loss, erythema, desquamation, Max. = 100): 51.9
[11]; [19]
  Disease rating (degree of hair loss, erythema, desquamation, Max. = 100): 100
[12]; mouse, in vivo, iv
  LD50 at 168 h: 10 mg/kg
[12]; p.o., male mice, 7 day
  LD12.5: 500 mg/kg

## OCCN(CCO)c1nc(N2CCCCC2)c2nc(N(CCO)CCO)nc(N3CCCCC3)c2n1 [Dipyridamide, 2,2',2",2"',[(4,8Di-1-piperidinyl-pyrimido]5,4d[pyrimidine2,6-diyl)dinitrlo] tetrakisethanol]
[9]; [20]
  ED50: 6.8 mg/kg

## Clc1ccc(/C(Cn2ccnc2)=N/Nc2c(Cl)cccc2Cl)cc1 [HC344, (Z)-1-(4-chlorophenyl)-2-(1H-imidazol-1-yl) ethanone, 2,6-dichlorophenylhydrazone, hydrochloride]
[11]; [18]
  Disease rating (degree of hair loss, erythema, desquamation, Max. = 100): 24.6
[11]; [19]
  Disease rating (degree of hair loss, erythema, desquamation, Max. = 100): 100
[12]; mouse, in vivo, ip, male mice, 7 day, read-out: LD50
  LD50 at 168 h: 780 mg/kg
[12]; p.o., male mice, 7 day
  LD12.5: > 1500 mg/kg

## Cl.Fc1c(F)c(F)c(N/N=C(\Cn2ccnc2)c2ccc(Cl)cc2)c(F)c1F [HC415, (Z)-1-(4-chlorophenyl)-2-(1H-imidazol-1-yl)ethanone, 2,3,4,5,6-pentafluorophenylhydrazone hydrochloride]
[13]; 5 mg/kg
  Recovery of C.albicans (as percentage of control): 14.0 percentage of control
[13]; 20 mg/kg
  Recovery of C.albicans (as percentage of control): 17.2 percentage of control

## Clc1ccc(/C(Cn2ccnc2)=N/Nc2ccccc2Cl)cc1 [HC 501, (Z)-1-(4-chlorophenyl)-2-(1H-imidazol-1-yl)ethanone,2-chlorophenylhydrazone, hydrochloride]
[14]
  pIC50: > 6.11
[9]; [20]
  ED50: 0.003 mg/kg

## CC(=O)N1CCN(c2ccc(OCC3COC(Cn4ccnc4)(c4ccc(Cl)cc4Cl)O3)cc2)CC1 (stereo not drawn) [Ketoconazole, cis-1-Acetyl-4-[4-[[2-(2,4-dichlorophenyl)-2-(1H-imidazol-1-yl-methyl)-1,3-dioxolan-4-yl]methoxy]piperazine, reference compound]
[13]; 5 mg/kg
  Recovery of C.albicans (as percentage of control): 51.0 percentage of control
[13]; 20 mg/kg
  Recovery of C.albicans (as percentage of control): 11.7 percentage of control
[10]; oral, 10 mg/kg once daily for 3 days
  Clearance of C. albicans from rat vagina (as percentage of control): 99.9 percentage of control
[10]; [17]
  Clearance of C. albicans from rat vagina (as percentage of control): 99.9 percentage of control
[11]; 20 mg/kg p.o., day 5 after infection
  Disease rating (degree of hair loss, erythema, desquamation, Max. = 100): 100
[11]; 20 mg/kg p.o., day 10 after infection
  Disease rating (degree of hair loss, erythema, desquamation, Max. = 100): 63.7
[11]; [18]
  Disease rating (degree of hair loss, erythema, desquamation, Max. = 100): 56.4
[11]; [19]
  Disease rating (degree of hair loss, erythema, desquamation, Max. = 100): 100

## Clc1ccc(COC(Cn2ccnc2)c2ccc(Cl)cc2Cl)c(Cl)c1 (stereo not drawn) [Miconazole, 1-[2-(2,4-Dichlorophenyl)-2-[(2,4-dichlorophenyl)methoxy]ethyl]-1H-imidazole]
[15]; i.v.
  No. of CFU/g kidney at 48 h: 9 × 10^2 CFU/g kidney
[15]; p.o.
  No. of CFU/g kidney at 48 h: 1.4 × 10^3 CFU/g kidney
[12]; mouse, in vivo, iv, male mice, 7 day, read-out: LD50
  LD50 at 168 h: 80 mg/kg
[12]; p.o., male mice, 7 day
  LD12.5: > 500 mg/kg

## CCn1cc(C(=O)O)c(=O)c2ccc(C)nc21 [NA, Nalidixic Acid]
[1]
  zone of inhibition at 50 µg/disc: 18 mm
[2]; Klebsiella
  zone of inhibition at 50 µg/disc: 21 mm
[3]
  zone of inhibition at 50 µg/disc: 0 mm
[4]
  zone of inhibition at 50 µg/disc: 7 mm
[5]
  zone of inhibition at 50 µg/disc: 25 mm
[6]
  zone of inhibition at 50 µg/disc: 9 mm
[7]; Streptococcus
  zone of inhibition at 50 µg/disc: 0 mm
[8]; Pseudomonas aeruginosa
  zone of inhibition at 50 µg/disc: 7 mm

## O=C1C(CC[S+]([O-])c2ccccc2)C(=O)N(c2ccccc2)N1c1ccccc1 (stereo not drawn) [Sulfinpyrazone]
[9]; [20]
  ED50: 4.1 mg/kg

## Clc1ccc(C(Cn2ccnc2)OCc2ccsc2Cl)c(Cl)c1 (stereo not drawn) [Tioconazole, 1-[2-[(2-Chloro-3-thienyl)methoxy]-2-(2,4-dichlorophenyl)ethyl]-1H-imidazole]
[15]; i.v.
  No. of CFU/g kidney at 48 h: 1.2 × 10^3 CFU/g kidney
[15]; p.o.
  No. of CFU/g kidney at 48 h: 2.2 × 10^3 CFU/g kidney
[16]
  CFU/g kidney: 8.1 × 10^3 CFU/g kidney
  CFU/g kidney, % of control: 55 % of control
[12]; mouse, in vivo, po
  LD12.5: > 500 mg/kg

## Polymyxin [PM]
[1]; 50 μg
  Zone diameter given by 50 μg of drug: 10 MM
[2]; 50 μg, Klebsiella pneumoniac
  Zone diameter given by 50 μg of drug: 10 MM
[3]; 50 μg
  Zone diameter given by 50 μg of drug: 11 MM
[4]; 50 μg
  Zone diameter given by 50 μg of drug: 0 MM
[5]; 50 μg
  Zone diameter given by 50 μg of drug: 12 MM
[6]; 50 μg
  Zone diameter given by 50 μg of drug: 7 MM
[7]; 50 μg, Streptococcus pyrogenes
  Zone diameter given by 50 μg of drug: 0 MM
[8]; 50 μg, pseudomonas aeruginosa
  Zone diameter given by 50 μg of drug: 10 MM
